Entries after “also recorded” stand apart in the source; their conditions may differ.
Legend:
mice [1] = experiment: Inverted screen acute neurotoxicity test; type: in vivo; conditions: 15, 20, 30, 50, 100 mg/kg i.p.; 5, 30, 60, 120 minutes
Description: The neurotoxic manifestation of isoxylitone was determined by inverted screen acute neurotoxicity test developed by Coughenour et al. in 1977. The apparatus consisted of six 13 cm square platforms of 0.6 cm wire mesh supported by metal bars mounted on a metal rod. The rod was supported at both ends and was inverted through an arc of 180°. Mice were pretested on the apparatus the day preceding the experiment, and those failing the task were not used for the subsequent drug test. Testing was carried out at 5, 30, 60 and 120 minutes following i.p. administration of 15 mg/kg, 20 mg/kg, 30 mg/kg, 50 mg/kg and 100 mg/kg of isoxylitone in groups of 6 mice. Mice unable to climb to an upright position for 1 min duration were rated as failures.

mice [2] = experiment: Behavioral analysis (Turner scoring); type: in vivo; conditions: 30 mg/kg, 50 mg/kg and 100 mg/kg
Description: The behavioral analysis was performed adopting the modified procedure as described by Turner, 1972. The effects were recorded using a scoring system (scores were allocated according to the intensity of the symptoms from 0-4) as described by Turner i.e. for stereotype behavior 0: no effect; 1: intermittent; 2: continues 3: intense; 4: severe and for spontaneous activity 0: reduced activity; and 4: increased activity. Animals were transferred into individual cages to allow them to acclimatize to the new environment prior to the experiment.
Blind-testing was employed i.e., the experimenter conducting this study was blinded to the treatment given to the animals in order to avoid any biased interpretations.

scPTZ-induced kindling = experiment: scPTZ-induced chemical kindling model of epileptogenesis; type: in vivo, mice; conditions: PTZ 50 mg/kg on alternate days
Description: Once screened in the acute seizure model, we next evaluated the effect of test compound on the development on epilepsy process using chemical kindling model of NMRI mice. […] The kindling was induced according to the modified method of De Sarro [23]. Each treatment group consists of 12 male NMRI mice ranging from 20-25 g. All the groups except normal control were given sub-convulsive dose of PTZ i.e., 50 mg/kg subcutaneously once on alternate day between 9:30-11:00 am. The normal control and drug control groups received daily intraperitoneal dose of saline (0.5 mL of 0.9% NaCl) and diazepam (7.5 mg/kg) respectively. Likewise, the test group was administered with the isoxylitones mixture (30 mg/kg, i.p.) once daily. On the day of PTZ administration, the treatment of saline, diazepam or isoxylitones were given 30-40 minutes before the PTZ. After each PTZ injection, animals were placed in observation chambers for 1 hour, and behavioral seizure activity was rated. Animals were scored according to a pre-validated scoring scale for the severity of the seizure activity they show. Seizure patterns during the gradual development of kindling are classified into five distinct behavioral stages as shown in the Table 1. The cumulative kindling score was then calculated and the experiments were terminated once the PTZ-control group reached the score 5. […]

BDNF protein expression = experiment: BDNF immunohistochemistry in brain samples of chemically kindled mice; type: in vivo; conditions: for BDNF immunoreactivity in hippocampus and cortex: vs PTZ kindled group; for cumulative BDNF immunoreactivity (ImageJ): vs PTZ kindling
Description: Brain samples from chemically kindled mice (as described above) were collected immediately after the last treatment of animals with PTZ. Mice were deeply anesthetized and transcardially perfused with ice-cold 50 mL solution containing phosphate buffer saline (PBS) and heparin [1 mL (5000 I.U.) of heparin added for 500 mL of PBS]. Brains were removed from cranial cavity and were gently rinsed in cold PBS. After washing, they were fixed in ice cold 4% paraformaldehyde solution for 24 hr at 4° C. These samples were then placed in a cryoprotectant i.e. 30% sucrose in PBS until they sank to the bottom of the container. The samples were subsequently stored at −80° C. until further processing. Cryostat sagittal sections were prepared using cryostat (Thermo Electron Corporation, UK), frozen brain sections of 30-μm thickness were cut at −20° C. and collected directly on poly-lysine coated slides. At the time of processing, the cryosections were kept overnight in a humid chamber at room temperature containing PBS buffer. […] On the following day, the sections were re-hydrated by rinsing three times (5 min/rinse) with PBS buffer, followed by incubation in blocking solution (pre-filtered with syringe filter of […] size, consisting of 2% bovine serum albumin (BSA), 2% normal goat serum and 0.1% Tween-20) for 30 min at 37° C. For BDNF IHC, the sections were incubated overnight at 4° C. with the BDNF (N-20) primary antibody sc-546 rabbit IgG (Santa Cruz Biotechnology Inc., USA). Following overnight incubation in the primary antibody, sections were washed three times in PBS and then were incubated with secondary antibody, i.e. Alexa Fluor® 546 goat anti-rabbit IgG secondary antibody (1:100 dilution) from Invitrogen (Life Technologies, NY, USA) for 30 min at 37° C. in the dark, followed by a final washing step with PBS. Negative control slides were prepared without primary antibody to rule out the non-specific tissue binding of antibodies. The stained sections were observed under fluorescent microscope (Nikon ECLIPSE TE2000-S).
The schematic diagrams of brain sections adapted from the mouse brain atlas were used as a visual guide for determining the sub-region boundaries. The image processing program ImageJ (National Institutes of Health, MD, USA) was used to analyze the images. This software helps in multiple imaging system data comparisons, taking density (densitometry) in consideration. For each image, background density was determined and subtracted; the remaining particles were considered to represent BDNF expression. Data were obtained from two sections per […] (n=12 animals per group) and presented as means±S.E.M BDNF immunoreactivity in the amygdala, cortex, dorsal hippocampus and thalamus were centered approximately around 3.6 mm posterior to bregma. Within the hippocampus region, measurements were performed over the layer extending from sub-regions CA1-CA3.

mice [3] = experiment: Acute toxicity (Lorke's test) with gross behavioral observation; type: in vivo
Description: The isoxylitone was tested for acute toxicity (LD50) using Lorke's test. This method provides the acute toxicity data with the least consumption of animals i.e. initially only 12 animals are required; on obtaining the dose causing the death in 50% animals further three more animals is used at the same dose to get the data statistically significant. Briefly, animals were given different doses of isoxylitone i.e., 50 mg/kg, 75 mg/kg, 100 mg/kg, 500 mg/kg and 1000 mg/kg. After 24 and 48 hours, the maximum dose that had not induced mortality was considered as the maximum non-fatal dose. LD50 values and the corresponding confidence intervals were determined by the Litchfield and Wilcoxon methods (SPSS, version, USA). Data were expressed as mean values±SEM and tested with ANOVA and Tukey-Kramer tests.
They were observed continuously for 2 hours after administration of the test compounds and then every 30 minutes for next 3 hours and finally after 24 hours. The CNS stimulation was judged by the following signs and symptoms:
Locomotor activity, ataxia, clonic & tonic convulsions, sedation, catalepsy, crouching, lacrimation, salivation or any other signs which deviate from the normal behavior of the animal under observation.

SD rats = experiment: Repeated daily dosing toxicity study, 15, 30 and 90 days; type: in vivo; conditions: 30 mg/kg daily
Description: The effective dose of isoxylitones i.e. 30 mg/kg was used in this study. The test was performed in SD rats. The animals divided into three groups and were daily administered with isoxylitones. The first group was sacrificed at the end of 15 days. The second group was sacrificed after 30 days and third group was sacrificed after 90 days. […] At the end, blood was taken via cardiac puncture for biochemistry. Gross anatomical observations were also made for organs as liver, spleen, kidney, heart, and lung and spleen and to examine the organ abnormalities.
The serum levels total bilirubin, GPT, GOT, alkaline phosphatase, and LDH was estimated.

PTZ-induced seizures = experiment: Subcutaneous pentylenetetrazole (scPTZ)-induced acute seizure test; type: in vivo, mice; conditions: for mortality: acute scPTZ-induced mortality test
Description: Subcutaneous Pentylenetetrazole (scPTZ) Seizure Model (Acute Seizures Model)
Anticonvulsant effects of isoxylitones using scPTZ acute seizure test was evaluated by administering three doses i.e. 15, 20, and 30 mg/kg to groups of six mice, at least 30-40 min before subcutaneous administration of convulsive doses of PTZ (90 mg/kg). After administering PTZ, the mice were isolated and placed separately in a clear plexiglass chamber and closely observed for an hour for the presence or absence of different types of seizure patterns i.e. onset of body twitches, threshold seizures, generalized seizures with loss of righting reflex, loss of righting reflex with tonic forelimb seizures, loss of righting reflex with tonic forelimb and hind limb seizures (Table 1). The protection from PTZ-induced mortality was also monitored within 24 hours. In all experiments, diazepam (7.5 mg/kg i.p.) was used as a drug control.
Subcutaneous Pentylenetetrazole-Induced Seizure Test (scPTZ-Induced Acute Seizures Model): […]

[4] = test system: c-Fos protein and mRNA expression; experiment: c-Fos protein and mRNA expression in brain samples of kindled mice; type: in vivo; conditions: 30 mg/kg; compared to PTZ-kindled control animals
Description: Recently we have evaluated the effects of novel anticonvulsant isomeric compounds isoxylitones on the c-Fos protein and mRNA expression in the brain samples of kindled mice and compared it with the normal and untreated kindled groups.

[5] = isoxylitones 15 mg/kg i.p. before PTZ 90 mg/kg s.c.
[6] = isoxylitones 20 mg/kg i.p. before PTZ 90 mg/kg s.c.
[7] = isoxylitones 30 mg/kg i.p. before PTZ 90 mg/kg s.c.
[8] = diazepam 7.5 mg/kg i.p. before PTZ 90 mg/kg s.c.

isoxylitones
acute neurotoxicity (motor function) (mice [1]): did not show sign of acute neurotoxicity
spontaneous motor activity and behavioral signs (ataxia, abdominal contractions, emesis, hyper-excitability, hyper-locomotion, twitches) (mice [2]): no alteration in the spontaneous motor activity
development of kindling (seizure score) (scPTZ-induced kindling; isoxylitones 30 mg/kg i.p. once daily, 18 doses, 34 days): did not exhibit seizure score until the end of the kindling experiment; also recorded: complete inhibition in the development of kindling
BDNF immunoreactivity in hippocampus and cortex (BDNF protein expression; isoxylitones 30 mg/kg): returned the enhanced BDNF immunoreactivity from PTZ kindling to the normal control levels
BDNF immunoreactivity in hippocampus and cortex (BDNF protein expression; isoxylitones 30 mg/kg, listed as isoxylitones): returned the BDNF levels to normal levels
cumulative BDNF immunoreactivity (ImageJ) (BDNF protein expression; isoxylitones 30 mg/kg): significantly suppressed
signs of toxicity / gross behavioral effects (mice [3]; 250 mg/kg, approximately 20 minutes after injection): mild cramps and abdominal stretching
signs of toxicity / gross behavioral effects (mice [3]; 500 mg/kg): signs of discomfort and mild toxicity; also recorded: Ataxia, complete sedation and drowsiness
signs of toxicity / gross behavioral effects (mice [3]; 1000 mg/kg): complete ataxia and sedation
animals showing signs of toxicity or altered behavior (mice [3]; 50 and 100 mg/kg, over 24 hours): None of the animals
mortality or morbidity (SD rats): No mortality or morbidity
protection from PTZ-induced loss of righting reflex with tonic-forelimb and tonic hind-limb seizures (PTZ-induced seizures; 30 mg/kg): 100%
prevention of PTZ-induced myoclonic twitches (PTZ-induced seizures; 15 and 20 mg/kg): effectively prevent PTZ-induced myoclonic twitches
protection from PTZ-induced seizure threshold (PTZ-induced seizures; 15 and 20 mg/kg): unable to provide complete protection
anticonvulsant activity in vivo models (PTZ-induced seizures; compounds shown in FIG. 1): strong anticonvulsant activity
Onset of jerks (PTZ-induced seizures; isoxylitones 15 mg/kg i.p. 40-50 min before PTZ 90 mg/kg s.c., mean ± SEM): 440 ± 55 s
Hind Limb Tonic Extension (HLTE) (PTZ-induced seizures; [5]): 1260 ± 20 s
Mortality protection (PTZ-induced seizures; [5]): 66.7%
Rearing & falling (PTZ-induced seizures; [5]): 990 ± 33 s
mortality (PTZ-induced seizures; isoxylitones 15 mg/kg): 33.3%
Hind Limb Tonic Extension (HLTE) (PTZ-induced seizures; [6]): 0 s
Mortality protection (PTZ-induced seizures; [6]): 100%
Onset of jerks (PTZ-induced seizures; [6]): 580 ± 21 s
Rearing & falling (PTZ-induced seizures; [6]): 1120 ± 40 s
mortality (PTZ-induced seizures; isoxylitones 20 mg/kg): 20.8%
Hind Limb Tonic Extension (HLTE) (PTZ-induced seizures; [7]): 0 s
Mortality protection (PTZ-induced seizures; [7]): 100%
Onset of jerks (PTZ-induced seizures; [7]): 900 ± 150 s
Rearing & falling (PTZ-induced seizures; [7]): 0 s
mortality (PTZ-induced seizures; isoxylitones 30 mg/kg): 0%
protection from different seizure patterns of PTZ-induced seizures (twitches, body jerks, clonus, generalized seizure) (PTZ-induced seizures; isoxylitones given prior to PTZ, 15, 20, 30 mg/kg): dose-related protection
c-Fos expression [4]: significant reduction of c-Fos expression

CN1C(=O)CN=C(c2ccccc2)c2cc(Cl)ccc21 [Diazepam, diazepam, reference compound]
development of kindling (seizure pattern) (scPTZ-induced kindling; diazepam 7.5 mg/kg daily): did not exhibit any seizure pattern till the end of the kindling protocol
BDNF immunoreactivity in hippocampus and cortex (BDNF protein expression; diazepam 7.5 mg/kg): reduced the levels to controls; also recorded: markedly reduced the immunoreactivity
cumulative BDNF immunoreactivity (ImageJ) (BDNF protein expression; diazepam 7.5 mg/kg): significantly suppressed
Hind Limb Tonic Extension (HLTE) (PTZ-induced seizures; [8]): 0 s
Mortality protection (PTZ-induced seizures; [8]): 100%
Onset of jerks (PTZ-induced seizures; [8]): 850 ± 20 s
Rearing & falling (PTZ-induced seizures; [8]): 0 s
